Assay results reported in ChEMBL document CHEMBL1132503, “N'-[2-(2-thiophene)ethyl]-N'-[2-(5-bromopyridyl)] thiourea as a potent inhibitor of NNI-resistant and multidrug-resistant human immunodeficiency virus-1” (Bioorg Med Chem Lett, 1999).

Assays:
[1] = Ability to inhibit the replication of A17 variant (Y181C,K103N) strain of HIV-1 p24 antigen production in PBMC; type: functional, Homo sapiens
[2] = Ability to inhibit the replication of HTLV IIIb strain of HIV-1 p24 antigen production in PBMC; type: functional; conditions: Homo sapiens
[3] = Ability to inhibit the replication of RT-MDR (V106A) strain of HIV-1 p24 antigen production in PBMC; type: functional; conditions: Homo sapiens
[4] = Cytotoxic concentration was evaluated using microculture tetrazolium assay (MTA); type: functional; conditions: Homo sapiens
[5] = Ability to inhibit the replication of A17 (Y181C) strain of HIV-1 p24 antigen production in PBMC; type: functional; conditions: Homo sapiens
[6] = target: Human immunodeficiency virus type 1 reverse transcriptase (Human immunodeficiency virus 1, UniProt Q72547); test: (§1) Inhibition of recombinant reverse transcriptase (RT) in cell-free Quan-T-RT assay system
[7] = target: Human immunodeficiency virus type 1 reverse transcriptase (Human immunodeficiency virus 1) (UniProt Q72547); test: as §1
[8] = Cytotoxicity was evaluated using microculture tetrazolium assay (MTA); type: functional; conditions: Homo sapiens

IC50 [6] [µM] | IC90 [7] [µM] | SMILES | IC50 [1] [µM] | IC50 [2] [µM] | IC50 [3] [µM] | CC50 [4] [µM] | IC50 [5] [µM] | CC50 [8] [µM]
– | – | CC(C)Nc1cccnc1N1CCN(C(=O)c2cc3cc(NS(C)(=O)=O)ccc3[nH]2)CC1 [DELAVIRDINE] | > 100 | 0.009 | 0.4 | 3.6 | 50 | –
> 100 | > 100 | CN1CCCC1CC/N=C(\S)Nc1ccc(Br)cn1 (stereo unspecified) | – | – | – | – | – | –
– | – | CCOCn1c(Cc2ccccc2)c(C(C)C)c(=O)[nH]c1=O [EMIVIRINE] | – | – | 0.27 | > 100 | – | –
> 100 | > 100 | S=C(NCCN1CCOCC1)Nc1ccc(Br)cn1 | – | – | – | – | – | –
– | – | Fc1ccccc1CC/N=C(\S)Nc1ccc(Br)cn1 | 41 | < 0.001 | 0.005 | – | 0.2 | > 100
0.9 | > 100 | S=C(NCCc1c[nH]c2ccccc12)Nc1ccc(Br)cn1 | – | – | – | – | – | –
1.2 | > 100 | S=C(NCCc1ccco1)Nc1ccc(Br)cn1 | – | – | – | – | – | –
0.7 | > 100 | S=C(NCCc1ccc2c(c1)OCO2)Nc1ccc(Br)cn1 | – | – | – | – | – | –
– | – | Cc1ccnc2c1NC(=O)c1cccnc1N2C1CC1 [NEVIRAPINE] | > 100 | 0.034 | 5 | 10.5 | > 100 | –
4.9 | > 100 | S=C(NCCN1CCCC1)Nc1ccc(Br)cn1 | – | – | – | – | – | –

SMILES | IC50 [6] [µM] | IC90 [7] [µM] | IC50 [1] [µM] | IC50 [2] [µM] | IC50 [3] [µM] | CC50 [4] [µM] | IC50 [5] [µM] | CC50 [8] [µM]
S=C(NCCN1CCCCC1)Nc1ccc(Br)cn1 | 0.6 | – | > 100 | 0.001 | > 100 | > 100 | > 100 | –
S=C(NCCc1ccccn1)Nc1ccc(Br)cn1 [TROVIRDINE] | 0.6 | 12 | > 100 | 0.007 | 0.02 | > 100 | 0.5 | –
S=C(NCCc1cnc[nH]1)Nc1ccc(Br)cn1 | > 100 | – | – | – | – | – | – | –
S=C(NCCc1c[nH]cn1)Nc1ccc(Br)cn1 | – | > 100 | – | – | – | – | – | –
S=C(NCCc1cccs1)Nc1ccc(Br)cn1 | 0.8 | 15 | 3.3 | 0.03 | 0.004 | > 100 | 0.048 | –
Cc1cn([C@H]2C[C@H](N=[N+]=[N-])[C@@H](CO)O2)c(=O)[nH]c1=O [ZIDOVUDINE] | > 100 | – | 0.004 | – | 0.2 | > 100 | 0.006 | –
